Test results as given in patent US20020090619A1, “Methods for identifying mitochondrial divalent cation transporters” (priority 2000, published 2002).

Key:
intact yeast = experiment: Aequorin luminescence in intact yeast cells expressing mitochondrially targeted aequorin; type: cell-based, Saccharomyces cerevisiae; conditions: intact cells
Protocol: Yeast cells (strain X4003-5B; leu2, ade1, his4, met2, ura3, trp5, gal1) obtained from the Yeast Genetic Stock Center (Berkeley, Calif.) were transformed with the pYES2 plasmid, encoding the human mitochondrially targeted apoaequorin fragment, using the lithium acetate method (Sambrook et al., 1989), and INVSc1 cells were transformed with the pGK plasmid encoding the yeast mitochondrially targeted apoaequorin fragment. Selection was carried out on plates prepared with synthetic complete medium minus uracil (SC-U) (Sherman, 1991 Meths. Enzymol. 194:3). Transformed colonies were cultured in a small volume of SC-U and assayed for aequorin activity in vitro as described by Nakajima et al. (1991 Proc. Nat. Acad. Sci. USA 88:6878). Briefly, the cells were harvested by centrifugation, resuspended in lysis buffer (50 mM Tris, 2 mM EDTA, 0.5 mM PMSF, pH 8 w/NaOH), disrupted by vortexing with glass beads, and then treated with 0.1% Triton X-100 to release apoaequorin from the mitochondria. Following centrifugation, 200 μl aliquots of the supernatants were incubated with coelenterazine (2.5 μM) and 2-mercaptoethanol (2 μl), for ˜3 hr while standing on ice, to form the luminescent aequorin from its apoprotein. The coelenterazine cofactor is highly hydrophobic and readily permeates yeast cell membranes (Nakajima et al., 1991) such that reconstitution was conducted without disrupting the cells in some cases. 2-mercaptoethanol was omitted when intact cells were employed. A transformant which yielded high luminescence (named X4003-5B-AEQmito1) was selected for further characterization.
For preculture, the transformant was inoculated into 50 ml of SC-U plus 2% glucose, and incubated in an air shaker at 180 rpm and 30° C. At 24 hr, the preculture was transferred to 500 ml of a medium containing 1% yeast extract, 2% peptone, 2% lactate, 1% galactose, 0.012% adenine, pH 5 w/NaOH, and growth was continued under conditions which were otherwise the same. […]
Luminescence measurements were carried out in 6×50 mm culture tubes, using a total volume of 0.3 ml, and were started by injection of 5-20 μl of mitochondria or cells. […] For each value, the ratio of observed luminescence (L) to the potential luminescence remaining (Lmax) was calculated, and compared to a calibration curve which relates this ratio to the free Ca^2+ concentration. […] The total luminescence available initially (Ltotal) must be known and was determined in separate experiments, wherein a saturating Ca^2+ concentration (20 μM) is employed to discharge the aequorin completely. This value allows Lmax to be calculated at any time, as Ltotal minus the sum of luminescence that already occurred. […]

[1] = test system: isolated yeast mitochondria; experiment: Ca2+ transport in isolated yeast mitochondria expressing aequorin (luminescence); type: biochemical, Saccharomyces cerevisiae; conditions: 2 μM A23187, medium containing no added Ca^2+, FIG. 22B
Protocol: For preculture, the transformant was inoculated into 50 ml of SC-U plus 2% glucose, and incubated in an air shaker at 180 rpm and 30° C. At 24 hr, the preculture was transferred to 500 ml of a medium containing 1% yeast extract, 2% peptone, 2% lactate, 1% galactose, 0.012% adenine, pH 5 w/NaOH, and growth was continued under conditions which were otherwise the same. Cells were harvested after an additional 24 hr, spheroplasts were prepared using zymolyase, and mitochondria were isolated by the method of Daum et al. (1982) as previously described (Jung et al., 1997). The final pellet was resuspended at ˜20 mg protein/ml in 0.6 M mannitol, 20 mM HEPES (K^+ salt, pH 6.8). Apoaequorin in the intact or disrupted mitochondria was reconstituted by incubation with coelenterazine as described above for cells.
For most experiments, the mitochondria were present at 0.4 mg protein/ml in a standard medium that contained 0.3 M KCl, 20 mM HEPES, (K^+ salt, pH 7.10), 10 mM KH2PO4, 2 mM EGTA, and 2 mM MgCl2. Other additions are described in greater detail below. Ca^2+ buffers were formed by adding various amounts of CaCl2 to this EGTA containing medium. The free Ca^2+ concentrations which resulted were calculated using a computer program (Brooks et al., 1992 Anal. Biochem. 201:119).
Luminescence measurements were carried out in 6×50 mm culture tubes, using a total volume of 0.3 ml, and were started by injection of 5-20 μl of mitochondria or cells. A SAI model 3000 integrating photometer was employed, with AJD sampling at 0.4 seconds intervals driven by Asyst software. Values were transformed into corresponding Ca^2+ concentrations by computer assisted calculations based upon published calibration methods (Allen et al., 1977 Science 195:996; Brini et al., 1995 J. Biol. Chem. 270:9896). For each value, the ratio of observed luminescence (L) to the potential luminescence remaining (Lmax) was calculated, and compared to a calibration curve which relates this ratio to the free Ca^2+ concentration. Thus, complete calibrated progress curves were generated. The total luminescence available initially (Ltotal) must be known and was determined in separate experiments, wherein a saturating Ca^2+ concentration (20 μM) is employed to discharge the aequorin completely. This value allows Lmax to be calculated at any time, as Ltotal minus the sum of luminescence that already occurred.
The calibration data were obtained at an ionic strength of 335 mM and in the presence of 1 mM Mg^2+, to mimic conditions in the mitochondrial matrix, because both factors influence the affinity of aequorin for Ca2+ (Cobbold et al., 1987 Biochem. J. 248:313). Luminescence values were corrected for low background values that are obtained when Ca^2+ is absent before conducting further calculations.

[2] = Yuchi et al., 1993; cited from earlier work
[3] = Esterase cleavage of divalent cation-sensitive indicator molecule precursors (fluorescence); type: biochemical; conditions: precursor 1 μg/ml, sonicated E. coli expressing the esterase
Description: Standard molecular biology procedures were used (Sambrook et al., 1989 Molecular Cloning: A Laboratory Manual, Cold Spring Harbor Laboratory Press, Cold Spring Harbor, N.Y.). All reagents were from Sigma (St. Louis, Mo.) unless otherwise indicated. E. coli cells expressing esterases from several sources: B. subtilis para-nitrobenzyl esterase from plasmid PNB106R (Zock et al., 1994) (SEQ ID NO:1; SEQ ID NO:7); Acinetobacter areA expressed in E. coli strain BL21(DE3) (SEQ ID NO:2; from plasmid pADPW40, Jones et al. 1999 J. Bacteriol. 181:4568, obtained from Drs. R. Jones and P. Williams, Univeristy of Wales Bangor, UK); Acinetobacter SalE expressed in E. coli strain BL21(DE3) (SEQ ID NO:3; from plasmid pADPW70, Jones et al. 2000 J. Bacteriol. 1832:2018, also obtained from Drs. R. Jones and P. Williams, Univeristy of Wales Bangor, UK) were grown in 10 mL of standard LB media plus ampicillin (100 μg/ml) at 37° C. Tetracycline (10 μg/ml) was present instead of ampicillin for the cells expressing B. subtilis para-nitrobenzyl esterase. For strains expressing all proteins except para-nitrobenzyle esterase, the cells were grown to an OD (λ=600 nm) of 0.6 and protein expression was induced by administration of […] IPTG for 4 hours until the culture reached an OD600 of ˜1.0. Cells expressing para-nitrobenzylesterase were grown at 30° C. and protein expression was induced by a temperature shift to 40° C. for 6 hours. The cells attained an OD600 of ˜1.0. Cells were washed, pelleted by centrifugation, and then resuspended in 0.5 ml of cold 0.12 M Tris Cl, pH 8.0. Cells were sonicated for ten seconds and then incubated on ice for ten seconds. This sonication step was repeated eight times.
For fluorescence measurements, a volume of 50 μl of the sonicated cell suspension was placed in 3.0 ml of 0.1 M KCl, 50 uM EGTA, 20 mM HEPES pH 7.40. As a divalent cation-sensitive indicator molecule, one of the following compounds (all from Molecular Probes, Inc., Eugene, Oreg.) was present at a final concentration of 1 μg/ml: BCECF AM (BCECF (2′,7′-bis-(2-carboxyethyl)-5-(and-6)-carboxyfluorescein), a proton indicator used as an esterase-cleavable control), Rhod-2 AM, Fluo-3 AM, Indo-1 AM, or Fura-2 AM. To monitor detection of divalent cation using the divalent cation-sensitive indicator molecules generated by esterase cleavage of the precursor forms, each reaction was made 2 mM CaCl2 The wavelengths used for the indicator dyes were as follows: Fluo-3, excitation 488 nm, emission 520 nm; Rhod-2, excitation 540 nm, emission 580 nm; Indo-1 AM, excitation 338 nm, emission scan […]; Fura-2, excitation scan 250-450 nm, emission 510 nm; BCECF, excitation 440 nm, emission 550 nm.

## CNc1ccc2oc(C[C@H]3O[C@@]4(CC[C@H]3C)O[C@H]([C@H](C)C(=O)c3ccc[nH]3)[C@H](C)C[C@H]4C)nc2c1C(=O)O [A23187]
Intact yeast
  additional luminescence when added after the response to ETH 129: absence of any additional luminescence
[1]
  effect on matrix Ca^2+ concentration: reduced the matrix Ca^2+ concentration below the detection limit

## COc1cc(N(CC(=O)O)CC(=O)O)c2nc(COc3cc(C)ccc3N(CC(=O)O)CC(=O)O)ccc2c1 [Quin-2]
[2]
  pKa^4: 6.25

## coelenterazine n
Intact yeast; FIG. 19B
  luminescence intensity as aequorin cofactor vs parent coelenterazine: comparable to that of the parent

B1: Para-nitrobenzyl esterase: B. subtilis para-nitrobenzyl esterase from plasmid PNB106R (SEQ ID NO:1; SEQ ID NO:7) (protein, listed as Bascillus subtilis)
chain: MTHQIVTTQYGKVKGTTENGVHKWKGIPYAKPPVGQWRFKAPEPPEVWEDVLDATAYGPICPQPSDLLSLSYTELPRQSEDCLYVNVFAPDTPSQNLPVMVWIHGGAFYLGAGSEPLYDGSKLAAQGEVIVVTLNYRLGPFGFLHLSSFDEAYSDNLGLLDQAAALKWVRENISAFGGDPDNVTVFGESAGGMSIAALLAMPAAKGLFQKAIMESGASRTMTKEQAASTAAAFLQVLGINESQLDRLHTVAAEDLLKAADQLRIAEKENIFQLFFQPALDPKTLPEEPEKSIAEGAASGIPLLIGTTRDEGYLFFTPDSDVHSQETLDAALEYLLGKPLAEKAADLYPRSLESQIHMMTDLLFWRPAVAYASAQSHYAPVWMYRFDWHPEKPPYNKAFHALELPFVFGNLDGLERMAKAEITDEVKQLSHTIQSAWITFAKTGNPSTEAVNWPAYHEETRETVILDSEITIENDPESEKRQKLFPSKGE
[3]
  hydrolysis of indicator precursors (AM esters) to Ca^2+-sensitive indicator molecules: detectably hydrolyzed all divalent cation-sensitive indicator molecule precursors that were tested

B2: SalE esterase: Acinetobacter SalE esterase expressed in E. coli BL21(DE3) (SEQ ID NO:3) (protein, listed as Acinetobacter sp.)
chain: MITYVLVHGSWHDGSLWEPVATHLRAQGHTVHCPTVAGHGPNADRNVTHAQCSQSIADYIVKHDLSEIVLLGHSYGGTIISKVAEAIPERIQRLIYWNAFVLQDGENMFDNMPEAYYELFTSLAAASGDNTVLLPYEVWRHAFINDADDQMAEETYKMLTPEPCQPFHDRLDLKKFYTLNIPKSYLNCTEDQALPAGFWHPKMSNRLGEFKLVEMGGSHEAMFTRPQELATKIIEASHD
[3]
  hydrolysis of indicator precursors (AM esters) to Ca^2+-sensitive indicator molecules: no apparent Ca^2+ sensitivity was detected

B3: HD-1 esterase: HD-1 esterase from an oil degrading bacterium (SEQ ID NO:4) (protein)
chain: MTLDAQAKAILDQIARSPMPKLHQVPASVARQMFEISCKLTEIKNLPIGRVEDRVIPGPDDTELPIRIYTPVAAPPGPLPVLVFFHGGGFVIGSLDSHDAPCRLIANEARCLVVSVDYRLAPENRFPAAVDDCLAAVTWVARNAAEINADPTRIAVGGDSAGGNLSAVVSQQLRDAGGPKIVFQLLIYPATDALHEGLSRTSNAEGYMLDKDLMSWFFAQYLGDGGGVDLADPRFSPLRHANLGNLGTIHVVVAGFDPLRDEGIAYAEALKAAGNKVTLSEFKGQIHGFCSMAGVIEAGRTALVEGAALLKEAFAQA
modifications: Sequence encoding petroleum-degrading bacterium esterase.
[3]
  hydrolysis of indicator precursors (AM esters) to Ca^2+-sensitive indicator molecules: Slow hydrolyses of Fura-2 AM and Indo-1 AM

B4: areA: Acinetobacter areA esterase expressed in E. coli BL21(DE3) (SEQ ID NO:2) (protein, listed as Acinetobacter sp.)
chain: MLQSLDPQLASFFAMLENQGAPAFDIGTLNDPNINEMRNWYLNFGPHVAGQFIELQDVEDLWIQVDDGSLRLRLYKTQRQHSESCETLIYFHGGGWCIGSIETHDLLCRHLVNDLDVNVISVDYRLAPEYPYPQAAHDAIHATQWIFEHASALGIHPDHLYVAGDSAGGNLAAITALTFKEQTYRTSLAGQILIYPCIDLTVIHDNKYPSFEKQKLTPPLSAEQMSKMIQIYLKNEDFAYQWLASPLLAQSHQHLPSTLIITAEFDPLHDQGCVYFEKLKSSLVNTEYHEIKGVVHGFFEMYGVLNKTKETINIIRAWLKNNTKSK
[3]
  hydrolysis of indicator precursors (AM esters) to Ca^2+-sensitive indicator molecules: rate of hydrolysis appeared to be significantly slower
